According to patent US20050222207A1, “Phosphodiesterase 4 inhibitors, including N-substituted diarylamine analogs” (priority 2003, published 2005):

How the values were obtained:
[1] = system: rats; assay: Radial arm maze task in rats, in vivo test for learning and memory (MK-801 amnesia); set-up: species or system rat; conditions: MK-801 0.1 mg/kg i.p., compared to control, p<0.01
Description: The test was performed as previously described (Zhang, H.-T., Crissman, A. M., Dorairaj, N. R., Chandler, L. J., and O'Donnell, J. M., Neuropsychopharmacology, 2000, 23, 198-204.). Five days after initial housing, rats (male Spraque-Dawley (Harlan) weighing 250 to 350 g) were placed in the eight-arm radial maze (each arm was 60×10×12 cm high; the maze was elevated 70 cm above the floor) for acclimation for two days. Rats were then placed individually in the center of the maze for 5 minutes with food pellets placed close to the food wells, and then, the next day, in the wells at the end of the arms; 2 sessions a day were conducted. Next, four randomly selected arms were then baited with one pellet of food each. The rat was restricted to the center platform (26 cm in diameter) for 15 seconds and then allowed to move freely throughout the maze until it collected all pellets of food or 10 minutes passed, whichever came first. Four parameters were recorded: 1) working memory errors, i.e., entries into baited arms that had already been visited during the same trial; 2) reference memory errors, i.e., entries into unbaited arms; 3) total arm entries; and 4) the test duration (seconds), i.e., the time spent in the collection of all the pellets in the maze. […]
(§1) All data were analyzed by analyses of variance (ANOVA); individual comparisons were made using Kewman-Keuls tests. […]

[2] = system: rats; assay: Passive avoidance in rats, in vivo test for learning and memory (MK-801 amnesia); set-up: species or system rat; conditions: MK-801 0.1 mg/kg, retention test 24 hours after shock, compared to vehicle, p<0.001
Description: The test was performed as previously described (Zhang, H.-T., Crissman, A. M., Dorairaj, N. R., Chandler, L. J., and O'Donnell, J. M., Neuropsychopharmacology, 2000, 23, 198-204.). The apparatus (Model E10-16SC, Coulbourn Instruments, Allentown, Pa.) consisted of a two-compartment chamber with an illuminated compartment connected to a darkened compartment by a guillotine door. The floor of the darkened compartment consisted of stainless steel rods through which an electric foot-shock could be delivered from a constant current source. All experimental groups were first habituated to the apparatus the day before the start of the experiment. During the training, the rat (Male Spraque-Dawley (Harlan) weighing 250 to 350 g) was placed in the illuminated compartment facing away from the closed guillotine door for 1 minute before the door was raised. The latency for entering the darkened compartment was recorded. After the rat entered the darkened compartment, the door was closed and a 0.5 mA electric shock was administered for 3 seconds. […] The latency for entering the darkened compartment was recorded for up to 180 seconds, at which time the trial was terminated.
as §1

COc1cc(N(Cc2cncs2)c2ccc(C(=O)O)cc2)ccc1C(N)=O
melting point: 196.7 to 196.8 °C

C[C@]12N[C@H](Cc3ccccc31)c1ccccc12 [MK-801]
frequency of reference memory errors [1]: increased | frequency of working memory errors [1]: increased | latency for entering the darkened compartment [2]: markedly reduced
